Measurements as given in patent US9885060B2, “Alkene production” (Evonik Degussa GmbH, priority 2015, dated 2018).

Tested on: OleT
Test: Inhibitory effect of gluconic acid on OleT productivity
Type: biochemical
Settings: 10 mM gluconic acid
Protocol: After 24 h reaction time, product concentrations of 1.16 mM (0.27 g L-1) 1-heptadecene and 1 mM (0.21 g L-1) 1-pentadecene were obtained but could not be further enhanced. […] Compared to a previously published whole cell reaction system, this FDH-driven system allows 6 times higher product titer and a 21 times higher volumetric productivity with 42.5 mg L-1 h-1 of α-olefin after 8 h reaction time vs: 98 mg L-1 in 48 h) (Table 2).

Compound: O=C(O)[C@H](O)[C@@H](O)[C@H](O)[C@H](O)CO [gluconic acid]
- reduction of OleT productivity: 28%
